Reference: publication PMC6032158, “Structure–Activity Relationship of Piplartine and Synthetic Analogues against Schistosoma mansoni and Cytotoxicity to Mammalian Cells” (International Journal of Molecular Sciences, 2018)

Assays:
[1] = test system: murine fibroblast (NIH-3T3) cells; assay: MTT cytotoxicity assay in murine fibroblasts; type: cell-based
Procedure: Next, the medium was removed and various concentrations (25–800 µg/mL) of samples reconstituted in 3% DMSO were applied. DMSO (3%) was used as a control. The plates were incubated for 24 h. Next, 15 µL of MTT solution (5 mg/mL in phosphate buffer) was added to each well and the plates were incubated for 2 h. Medium was discarded and 100 µL of DMSO was added to each well. Absorbance was determined using a spectrophotometer with a microplate reader at 595 nm (Molecular Devices Corporation, Sunnyvale, CA, USA).

[2] = test system: mouse BALB/cN macrophage (J774A.1) cell line; assay: Cell viability by flow cytometry in macrophages; conditions: 24 h, 25, 100 and 400 µg/mL, vs DMEM control
[3] = test system: 49-day-old S. mansoni adult worms; assay: In vitro experiments with adult worms of S. mansoni (mortality, motor activity); type: cell-based, Schistosoma mansoni; conditions: for Dead Worms (%) F / Motor Activity Reduction (%) Significant F / Motor Activity Reduction (%) Slight F: female worms; for Dead Worms (%) M / Motor Activity Reduction (%) Significant M / Motor Activity Reduction (%) Slight M: male worms
Procedure: The Belo Horizonte (BH) strain of S. mansoni was maintained in Biomphalaria glabrata snails and Mesocricetus auratus hamsters at the Adolfo Lutz Institute (São Paulo, Brazil) according to standard procedures. Detailed methods for the infection of molluscs and hamsters, as well as for the recovery of parasites, were as described previously. Briefly, the intermediate host snails were exposed to light for approximately 3 h and cercariae of S. mansoni were subsequently harvested. […] All animals were handled in strict accordance with good animal practice as defined by the Animal Use Ethics Committee. The preparations and culture of schistosomes was performed as previously described. Briefly, hamsters were killed 49 days after infection for the recovery of adult schistosomes. Next, fresh adult worm pairs (male and female) were washed and placed in a 24-well culture plate (TPP, St. […] Adult schistosomes were maintained continuously in medium (with or without drugs) for 96 h as described below. In vitro assays in S. mansoni adults were performed with mated males and females. The worm pairs obtained from the infusion hamsters were washed twice with RPMI 1640 medium containing 200 U/mL penicillin, 200 μg/mL streptomycin and 2 μg/mL amphotericin B (Vitrocell, Campinas, Brazil). The mated parasites were then transferred into 24-well cell culture plates (TPP, St. […] Cultures of adult worms were monitored by microscopy or magnifying glass. The effect of the drug was assessed with emphasis on changes in worm motor activity and death of worms as previously described.

COc1cc(/C=C/C(=O)N(C(=O)NC2CCCCC2)C2CCCCC2)cc(OC)c1OC [Compound 1M]
effect on NIH-3T3 cell viability (in words) ([1]; MTT, 24 h exposure, 25 to 800 µg/mL): considerable reduction in cell viability at concentrations of 400 and 800 μg/mL | Emax at 800 µg/mL ([1]; Mus musculus, NIH3T3, 24 h, decrease in cell viability at the maximum concentration tested (800 μg/mL), NIH-3T3, 24 h): 70.9 ± 1.2% | effect on J774A.1 cell viability (in words) [2]: significantly altered (p < 0.05) cell viability in comparison with the negative control, but not in a toxic manner | Dead Worms (%) F ([3]; 5 µM, 24 h): 0% | Motor Activity Reduction (%) Significant F ([3]; 5 µM, 24 h): 0% | Motor Activity Reduction (%) Slight F ([3]; 5 µM, 24 h): 0% | Dead Worms (%) M ([3]; 5 µM, 24 h): 0% | Motor Activity Reduction (%) Significant M ([3]; 5 µM, 24 h): 0% | Motor Activity Reduction (%) Slight M ([3]; 5 µM, 24 h): 0% | Dead Worms (%) F ([3]; 5 µM, 48 h): 0% | Motor Activity Reduction (%) Significant F ([3]; 5 µM, 48 h): 0% | Motor Activity Reduction (%) Slight F ([3]; 5 µM, 48 h): 0% | Dead Worms (%) M ([3]; 5 µM, 48 h): 0% | Motor Activity Reduction (%) Significant M ([3]; 5 µM, 48 h): 0% | Motor Activity Reduction (%) Slight M ([3]; 5 µM, 48 h): 0% | Dead Worms (%) F ([3]; 5 µM, 72 h): 0% | Motor Activity Reduction (%) Significant F ([3]; 5 µM, 72 h): 0% | Motor Activity Reduction (%) Slight F ([3]; 5 µM, 72 h): 0% | Dead Worms (%) M ([3]; 5 µM, 72 h): 0% | Motor Activity Reduction (%) Significant M ([3]; 5 µM, 72 h): 0% | Motor Activity Reduction (%) Slight M ([3]; 5 µM, 72 h): 0% | Dead Worms (%) F ([3]; 5 µM, 96 h): 0% | Motor Activity Reduction (%) Significant F ([3]; 5 µM, 96 h): 0% | Motor Activity Reduction (%) Slight F ([3]; 5 µM, 96 h): 0% | Dead Worms (%) M ([3]; 5 µM, 96 h): 0% | Motor Activity Reduction (%) Significant M ([3]; 5 µM, 96 h): 0% | Motor Activity Reduction (%) Slight M ([3]; 5 µM, 96 h): 0% | Dead Worms (%) F ([3]; 10 µM, 24 h): 0% | Motor Activity Reduction (%) Significant F ([3]; 10 µM, 24 h): 0% | Motor Activity Reduction (%) Slight F ([3]; 10 µM, 24 h): 0% | Dead Worms (%) M ([3]; 10 µM, 24 h): 0% | Motor Activity Reduction (%) Significant M ([3]; 10 µM, 24 h): 0% | Motor Activity Reduction (%) Slight M ([3]; 10 µM, 24 h): 0% | Dead Worms (%) F ([3]; 10 µM, 48 h): 0% | Motor Activity Reduction (%) Significant F ([3]; 10 µM, 48 h): 0% | Motor Activity Reduction (%) Slight F ([3]; 10 µM, 48 h): 0% | Dead Worms (%) M ([3]; 10 µM, 48 h): 0% | Motor Activity Reduction (%) Significant M ([3]; 10 µM, 48 h): 0% | Motor Activity Reduction (%) Slight M ([3]; 10 µM, 48 h): 0% | Dead Worms (%) F ([3]; 10 µM, 72 h): 0% | Motor Activity Reduction (%) Significant F ([3]; 10 µM, 72 h): 0% | Motor Activity Reduction (%) Slight F ([3]; 10 µM, 72 h): 0% | Dead Worms (%) M ([3]; 10 µM, 72 h): 0% | Motor Activity Reduction (%) Significant M ([3]; 10 µM, 72 h): 0% | Motor Activity Reduction (%) Slight M ([3]; 10 µM, 72 h): 0% | Dead Worms (%) F ([3]; 10 µM, 96 h): 0% | Motor Activity Reduction (%) Significant F ([3]; 10 µM, 96 h): 0% | Motor Activity Reduction (%) Slight F ([3]; 10 µM, 96 h): 0% | Dead Worms (%) M ([3]; 10 µM, 96 h): 0% | Motor Activity Reduction (%) Significant M ([3]; 10 µM, 96 h): 0% | Motor Activity Reduction (%) Slight M ([3]; 10 µM, 96 h): 0% | Dead Worms (%) F ([3]; 25 µM, 24 h): 0% | Motor Activity Reduction (%) Significant F ([3]; 25 µM, 24 h): 0% | Motor Activity Reduction (%) Slight F ([3]; 25 µM, 24 h): 0% | Dead Worms (%) M ([3]; 25 µM, 24 h): 0% | Motor Activity Reduction (%) Significant M ([3]; 25 µM, 24 h): 0% | Motor Activity Reduction (%) Slight M ([3]; 25 µM, 24 h): 0% | Dead Worms (%) F ([3]; 25 µM, 48 h): 0% | Motor Activity Reduction (%) Significant F ([3]; 25 µM, 48 h): 0% | Motor Activity Reduction (%) Slight F ([3]; 25 µM, 48 h): 0% | Dead Worms (%) M ([3]; 25 µM, 48 h): 0% | Motor Activity Reduction (%) Significant M ([3]; 25 µM, 48 h): 0% | Motor Activity Reduction (%) Slight M ([3]; 25 µM, 48 h): 0% | Dead Worms (%) F ([3]; 25 µM, 72 h): 0% | Motor Activity Reduction (%) Significant F ([3]; 25 µM, 72 h): 0% | Motor Activity Reduction (%) Slight F ([3]; 25 µM, 72 h): 0% | Dead Worms (%) M ([3]; 25 µM, 72 h): 0% | Motor Activity Reduction (%) Significant M ([3]; 25 µM, 72 h): 0% | Motor Activity Reduction (%) Slight M ([3]; 25 µM, 72 h): 0% | Dead Worms (%) F ([3]; 25 µM, 96 h): 0% | Motor Activity Reduction (%) Significant F ([3]; 25 µM, 96 h): 0% | Motor Activity Reduction (%) Slight F ([3]; 25 µM, 96 h): 0% | Dead Worms (%) M ([3]; 25 µM, 96 h): 0% | Motor Activity Reduction (%) Significant M ([3]; 25 µM, 96 h): 0% | Motor Activity Reduction (%) Slight M ([3]; 25 µM, 96 h): 0% | Dead Worms (%) F ([3]; 50 µM, 24 h): 0% | Motor Activity Reduction (%) Significant F ([3]; 50 µM, 24 h): 0% | Motor Activity Reduction (%) Slight F ([3]; 50 µM, 24 h): 0% | Dead Worms (%) M ([3]; 50 µM, 24 h): 0% | Motor Activity Reduction (%) Significant M ([3]; 50 µM, 24 h): 0% | Motor Activity Reduction (%) Slight M ([3]; 50 µM, 24 h): 0% | Dead Worms (%) F ([3]; 50 µM, 48 h): 0% | Motor Activity Reduction (%) Significant F ([3]; 50 µM, 48 h): 0% | Motor Activity Reduction (%) Slight F ([3]; 50 µM, 48 h): 0% | Dead Worms (%) M ([3]; 50 µM, 48 h): 0% | Motor Activity Reduction (%) Significant M ([3]; 50 µM, 48 h): 0% | Motor Activity Reduction (%) Slight M ([3]; 50 µM, 48 h): 0% | Dead Worms (%) F ([3]; 50 µM, 72 h): 0% | Motor Activity Reduction (%) Significant F ([3]; 50 µM, 72 h): 0% | Motor Activity Reduction (%) Slight F ([3]; 50 µM, 72 h): 0% | Dead Worms (%) M ([3]; 50 µM, 72 h): 0% | Motor Activity Reduction (%) Significant M ([3]; 50 µM, 72 h): 0% | Motor Activity Reduction (%) Slight M ([3]; 50 µM, 72 h): 0% | Dead Worms (%) F ([3]; 50 µM, 96 h): 0% | Motor Activity Reduction (%) Significant F ([3]; 50 µM, 96 h): 0% | Motor Activity Reduction (%) Slight F ([3]; 50 µM, 96 h): 0% | Dead Worms (%) M ([3]; 50 µM, 96 h): 0% | Motor Activity Reduction (%) Significant M ([3]; 50 µM, 96 h): 0% | Motor Activity Reduction (%) Slight M ([3]; 50 µM, 96 h): 0% | activity against S. mansoni adult worms (in words) ([3]; analogues 50, 25, 10 and 5 μM, piplartine 5 and 10 μM, up to 96 h): did not present biological activity against the S. mansoni parasite
